Experimental findings from US20150080438A1, “6,7-Dihydro-5H-benzo[7]annulene derivatives, processes for their preparation, pharmaceutical products comprising them and their use for preparing medicaments” (Bayer Intellectual Property GmbH, priority 2011, published 2015) are described below.

A word on the IC50: it is the concentration that inhibits the measured activity by half.

This assay addresses T1, oestrogen receptor (ER) (Homo sapiens, UniProt P03372).
T1 construct: These MVLN cells express, along with the functional oestrogen receptor (ER), a reporter construct; endogenous in cells; host or cells: MVLN cells (MCF7 derivative with ER-responsive luciferase reporter)
T1 sequence (P03372 1-595): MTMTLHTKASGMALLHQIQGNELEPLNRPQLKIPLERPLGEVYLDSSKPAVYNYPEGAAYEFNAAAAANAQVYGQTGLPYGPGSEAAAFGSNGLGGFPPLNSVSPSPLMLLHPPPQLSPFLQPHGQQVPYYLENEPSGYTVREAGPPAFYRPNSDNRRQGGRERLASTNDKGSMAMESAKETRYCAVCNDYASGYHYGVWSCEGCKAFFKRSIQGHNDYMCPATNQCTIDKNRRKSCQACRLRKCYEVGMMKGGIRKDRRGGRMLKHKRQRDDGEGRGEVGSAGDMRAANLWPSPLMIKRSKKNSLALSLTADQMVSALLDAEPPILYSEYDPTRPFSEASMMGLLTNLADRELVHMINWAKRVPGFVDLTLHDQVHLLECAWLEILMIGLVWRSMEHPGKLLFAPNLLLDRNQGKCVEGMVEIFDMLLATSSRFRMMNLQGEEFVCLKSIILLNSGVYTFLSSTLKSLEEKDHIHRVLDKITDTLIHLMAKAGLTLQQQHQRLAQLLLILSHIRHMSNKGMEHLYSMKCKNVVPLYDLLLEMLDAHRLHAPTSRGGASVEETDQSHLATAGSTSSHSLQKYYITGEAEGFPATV
In words: Anti-oestrogenic action in MVLN cells (inhibition of estradiol-induced luciferase, transactivation antagonism). It is filed as cell-based. As to conditions: inhibition of estradiol-induced luciferase activity, read-out: Anti-oestrogenic action in vitro: MVLN transactivation antagonism IC50. The method in brief: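 MCF7-derived MVLN cells carrying an ER-driven luciferase reporter; test compounds applied with estradiol, and anti-oestrogenic action scored as inhibition of the estradiol-induced luciferase signal.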

On to `CN(CCCCCCC1=C(c2ccc(F)c(O)c2)CCCc2c1ccc(O)c2F)CCCCS(=O)(=O)CCCC(F)(F)C(F)(F)F` [Example 117, 4-Fluoro-8-(4-fluoro-3-hydroxyphenyl)-9-[6-(methyl{4-[(4,4,5,5,5-pentafluoropentyl)sulphonyl]butyl}amino)hexyl]-6,7-dihydro-5H-benzo[7]annulen-3-ol], for which the half-maximal inhibitory concentration (IC50) is 11 nM.

As to `CN(CCCCCCC1=C(c2cccc(O)c2)CCCc2cc(O)ccc21)CCCCS(=O)(=O)CCCC(F)(F)C(F)(F)F` [Example 15, 8-(3-Hydroxyphenyl)-9-[6-(methyl{4-[(4,4,5,5,5-pentafluoropentyl)sulphonyl]butyl}amino)hexyl]-6,7-dihydro-5H-benzo[7]annulen-3-ol], the IC50 was found to be 3 nM. Take `CN(CCCCCCC1=C(c2ccc(F)c(O)c2)CCCc2cc(O)ccc21)CCCCCCS(=O)(=O)CCCC(F)(F)C(F)(F)F` [Example 35, 8-(4-Fluoro-3-hydroxyphenyl)-9-[6-(methyl{6-[(4,4,5,5,5-pentafluoropentyl)sulphonyl]hexyl}amino)hexyl]-6,7-dihydro-5H-benzo[7]annulen-3-ol]: the IC50 was 11 nM. The result for `O=S(=O)(CCCN(CCCO)CCCCCCC1=C(c2cccc(O)c2)CCCc2cc(O)ccc21)CCCC(F)(F)C(F)(F)F` [Example 92, 8-(3-Hydroxyphenyl)-9-{6-[(3-hydroxypropyl){3-[(4,4,5,5,5-mpentafluoropentyl)sulphonyl]propyl}amino]hexyl}-6,7-dihydro-5H-benzo[7]annulen-3-ol] reads 1 nM; that for `[O-][S+](CCCN(CCO)CCCCCCC1=C(c2cccc(O)c2)CCCc2cc(O)ccc21)CCCC(F)(F)C(F)(F)F` (racemic) [Example 87, 9-{6-[(2-Hydroxyethyl){3-[(RS)-(4,4,5,5,5-pentafluoropentyl)sulphinyl]propyl}amino]hexyl}-8-(3-hydroxyphenyl)-6,7-dihydro-5H-benzo[7]annulen-3-ol], 1 nM. On to `CC(C)(O)CN(CCCCCCC1=C(c2ccc(F)c(O)c2)CCCc2cc(O)c(F)cc21)CCC[S+]([O-])CCC(F)(F)F` (racemic) [Example 129, 2-Fluoro-8-(4-fluoro-3-hydroxyphenyl)-9-{6-[(2-hydroxy-2-methylpropyl){3-[(RS)-(3,3,3-trifluoropropyl)sulphinyl]propyl}amino]hexyl}-6,7-dihydro-5H-benzo[7]annulen-3-ol], for which the half-inhibitory concentration (IC50) was found to be 4 nM. The value for `CN(CCCCCC1=C(c2cccc(O)c2)CCCc2cc(O)ccc21)CCCCS(=O)(=O)CCC(F)(F)F` [Example 112, 8-(3-Hydroxyphenyl)-9-[5-(methyl{4-[(3,3,3-trifluoropropyl)sulphonyl]butyl}amino)pentyl]-6,7-dihydro-5H-benzo[7]annulen-3-ol] was 45 nM; that for `CC(C)(O)CN(CCCCCCC1=C(c2ccccc2)CCCc2cc(O)ccc21)CCCS(=O)(=O)CCCC(F)(F)C(F)(F)F` [Example 75, 9-{6-[(2-Hydroxy-2-methylpropyl){3-[(4,4,5,5,5-pentafluoropentyl)sulphonyl]propyl}amino]hexyl}-8-phenyl-6,7-dihydro-5H-benzo[7]annulen-3-01] was 14 nM. The value for `[O-][S+](CCCN(CCO)CCCCCCC1=C(c2ccccc2)CCCc2cc(O)ccc21)CCC(F)(F)F` (racemic) [Example 78, 9-{6-[(2-Hydroxyethyl){3-[(RS)-(3,3,3-trifluoropropyl)sulphinyl]propyl}amino]hexyl}-8-phenyl-6,7-dihydro-5H-benzo[7]annulen-3-ol] was 11 nM; that for `CC(C)(O)CN(CCCCCCC1=C(c2ccccc2)CCCc2cc(O)ccc21)CCC[S+]([O-])CCC(F)(F)F` (racemic) [Example 82, 9-{6-[(2-Hydroxy-2-methylpropyl){3-[(RS)-(3,3,3-trifluoropropyl)sulphinyl]propyl}amino]hexyl}-8-phenyl-6,7-dihydro-5H-benzo[7]annulen-3-ol] was 9 nM. The result for `CC(C)(O)CN(CCCCCCC1=C(c2cccc(O)c2)CCCc2cc(O)ccc21)CCCS(=O)(=O)CCCC(F)(F)C(F)(F)F` [Example 93, 9-{6-[(2-Hydroxy-2-methylpropyl){3-[(4,4,5,5,5-pentafluoropentyl)sulphonyl]propyl}amino]hexyl}-8-(3-hydroxyphenyl)-6,7-dihydro-5H-benzo[7]annulen-3-ol] reads 1 nM; that for `CN(CCCCCCC1=C(c2ccc(F)c(O)c2)CCCc2cc(O)ccc21)CCCCCC[S+]([O-])CCCC(F)(F)C(F)(F)F` (racemic) [Example 34, 8-(4-Fluoro-3-hydroxyphenyl)-9-[6-(methyl{6-[(RS)-(4,4,5,5,5-pentafluoropentyl)sulphinyl]hexyl}amino)hexyl]-6,7-dihydro-5H-benzo[7]annulen-3-ol], 5 nM.

For `CN(CCCCCCC1=C(c2cccc(O)c2)CCCc2cc(O)ccc21)CCCS(=O)(=O)CCC(F)(F)C(F)(F)F` [Example 54, 8-(3-Hydroxyphenyl)-9-[6-(methyl{3-[(3,3,4,4,4-pentafluorobutyl)sulphonyl]propyl}amino)hexyl]-6,7-dihydro-5H-benzo[7]annulen-3-ol], the IC50 came to 2 nM. The value for `CN(CCCCCCC1=C(c2ccc(F)c(O)c2)CCCc2cc(O)c(F)cc21)CCC[S+]([O-])CCCC(F)(F)C(F)(F)F` (racemic) [Example 130, 2-Fluoro-8-(4-fluoro-3-hydroxyphenyl)-9-[6-(methyl{3-[(RS)-(4,4,5,5,5-pentafluoropentyl)sulphinyl]propyl}amino)hexyl]-6,7-dihydro-5H-benzo[7]annulen-3-ol] was 5 nM; that for `[O-][S+](CCCN(CCO)CCCCCCC1=C(c2ccccc2)CCCc2cc(O)ccc21)CCCC(F)(F)C(F)(F)F` (racemic) [Example 70, 9-{6-[(2-Hydroxyethyl){3-[(RS)-(4,4,5,5,5-pentafluoropentyl)sulphinyl]propyl}amino]hexyl}-8-phenyl-6,7-dihydro-5H-benzo[7]annulen-3-ol] was 2 nM; that for `CN(CCCCCCC1=C(c2cccnc2)CCCc2cc(O)ccc21)CCCSCCCC(F)(F)C(F)(F)F` [Example 42, 9-[6-(Methyl{3-[(4,4,5,5,5-pentafluoropentyl)sulphanyl]propyl}amino)hexyl]-8-(3-pyridyl)-6,7-dihydro-5H-benzo[7]annulen-3-ol] was 7 nM. The value for `CN(CCCCCCS(=O)(=O)CCCC(F)(F)C(F)(F)F)CCCCCC1=C(c2cccc(O)c2)CCCc2cc(O)ccc21` [Example 11, 8-(3-Hydroxyphenyl)-9-[5-(methyl{6-[(4,4,5,5,5-pentafluoropentyl)sulphonyl]hexyl}amino)pentyl]-6,7-dihydro-5H-benzo[7]annulen-3-ol] was 4 nM; that for `CN(CCCCCCC1=C(c2ccccc2)CCCc2cc(O)ccc21)CCCS(=O)(=O)CCCC(F)(F)F` [Example 57, 9-[6-(Methyl{3-[(4,4,4-trifluorobutyl)sulphonyl]propyl}amino)hexyl]-8-phenyl-6,7-dihydro-5H-benzo[7]annulen-3-ol] was 5 nM; that for `CC(C)(O)CN(CCCCCCC1=C(c2cccc(O)c2)CCCc2cc(O)ccc21)CCCS(=O)(=O)CCC(F)(F)F` [Example 100, 9-{6-[(2-Hydroxy-2-methylpropyl){3-[(3,3,3-trifluoropropyl)sulphonyl]propyl}amino]hexyl}-8-(3-hydroxyphenyl)-6,7-dihydro-5H-benzo[7]annulen-3-ol] was 3 nM.
